These results are taken from patent US12433838B2, “Liposomal formulation of bacterial lipopolysaccharide combined with a cytotoxic agent, and use thereof in anti-tumour therapy” (priority 2017, dated 2025).

One test deals with SaOS cells. The experiment in a line: Apoptosis of SaOS spheroids with Lipo-LPS-activated THP-1 macrophages and/or etoposide (IncuCyte Caspase-3/7). The class given is cell-based, rat. The following applies: 5 μM etoposide or macrophages stimulated 16 h with 100 ng/mL Lipo-LPS, fluorescence arbitrary units, FIG. 6. The source says: The SaOS cells are […] osteosarcoma cells. This is a malignant bone tumour. These cells can be cultured according to a 3D spheroid model adapted to tumour cells.
THP-1 are human monocytic cells derived from an acute monocytic leukemia.
To perform cellular death monitoring of these SaOS cells, the fluorescent product IncuCyte® Caspase-3/7 has been used to evaluate the number of apoptosis cells.
The results are shown in FIG. 6, in fluorescence arbitrary units.

Test [1] concerns RL lymphoma cells (CD20+ human B lymphoma cells). The experiment in a line: Tumour growth monitoring in RL cells xenografted mice. The following applies: 46 days after the tumour graft; 30 mg/kg, one injection per week; FIG. 1. It counts as in vivo, Scid CB17 mice.
Excerpt: During this experiment, six groups of Scid CB17 mice have been used. Each group is comprised at six mice.
Group 1=control (no treatment)

For the molecule `COc1cc([C@@H]2c3cc4c(cc3[C@@H](O[C@@H]3O[C@@H]5CO[C@@H](C)O[C@H]5[C@H](O)[C@H]3O)[C@H]3COC(=O)[C@H]23)OCO4)cc(OC)c1O` [etoposide], the “Apoptosis rate of SaOS cells with respect to the control” value was “induces cancer cell apoptosis” with SaOS cells and “significantly increased with respect to the control” in the test on SaOS cells (listed as epotoside).

As to rituximab, the “Tumour volume relative to control mice” value in test [1] is “twice lower”.
